{"source": "paper PMC6429502", "about": "“Synthesis and AChE-Inhibitory Activity of New Benzimidazole Derivatives” (Molecules, 2019)", "assay_type_in_all_cases": "biochemical", "key": {"AChE [1]": {"target": "T1, AChE (Electrophorus electricus, UniProt O42275)", "T1 sequence (O42275 24-633)": "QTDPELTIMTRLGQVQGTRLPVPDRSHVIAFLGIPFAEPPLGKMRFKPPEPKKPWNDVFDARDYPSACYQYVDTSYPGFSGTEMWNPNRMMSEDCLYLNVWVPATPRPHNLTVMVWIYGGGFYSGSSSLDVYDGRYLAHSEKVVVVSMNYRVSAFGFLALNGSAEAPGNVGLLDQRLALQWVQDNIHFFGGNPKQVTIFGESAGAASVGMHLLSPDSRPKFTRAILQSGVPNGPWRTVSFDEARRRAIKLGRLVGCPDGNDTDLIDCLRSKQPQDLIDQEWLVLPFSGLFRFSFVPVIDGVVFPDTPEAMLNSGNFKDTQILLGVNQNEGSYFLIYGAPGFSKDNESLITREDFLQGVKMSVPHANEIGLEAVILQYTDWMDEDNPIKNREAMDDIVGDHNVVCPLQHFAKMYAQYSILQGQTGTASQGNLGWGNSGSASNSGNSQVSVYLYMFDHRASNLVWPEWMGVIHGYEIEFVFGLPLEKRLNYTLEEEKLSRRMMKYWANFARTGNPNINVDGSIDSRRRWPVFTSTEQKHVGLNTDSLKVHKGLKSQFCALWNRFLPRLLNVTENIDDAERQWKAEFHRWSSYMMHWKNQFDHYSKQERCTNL", "experiment": "AChE inhibition, modified Ellman's method"}, "BChE": {"system": "BChE", "method": "New benzimidazole-triazole derivatives were designed, synthesized, and evaluated for their potential to inhibit AChE and BChE. First, all the synthesized compounds were tested at 10^−3 M and 10^−4 M concentrations.\nThe inhibitory activities of the compounds against AChE and BChE were determined in 96-well plates by modified Ellman’s method as defined in our previous studies. Donepezil and tacrine were used as reference drugs. A robotic system, Biotek Precision XS (Winooski, VT, USA), was used for all pipetting processes in the enzyme inhibition assay. Measurements of the percentage inhibition were carried out at 412 nm by using a BioTek-Synergy H1 microplate reader (Winooski, VT, USA). Inhibition potencies of synthesized compounds and IC50 of selected derivatives were calculated as reported previously."}, "AChE [2]": {"target": "T1, AChE", "experiment": "Enzyme kinetic studies of AChE inhibition (Lineweaver-Burk plots, secondary plots)", "conditions": "2 × IC50, IC50 and IC50/2, substrate 600 µM to 18.75 µM", "method": "Enzyme kinetic studies were carried out in order to determine the mechanism of AChE inhibition. The type of inhibition was forecast using linear Lineweaver-Burk plots. […] The initial velocity measurements were recorded by using different substrate concentrations ranging from 600 µM to 18.75 µM for AChE enzyme. The secondary plots of the Km/Vmax (slope) versus varying concentrations were used to calculate Ki (intercept on the x-axis) values of compounds [35]. The graphical analyses of the steady-state inhibition data for AChE enzyme are shown in Figure 1 and Figure 2, respectively.\nReversible inhibition consists of the following subtypes: mixed-type, competitive, uncompetitive, or noncompetitive. These types of inhibition can be determined with the help of Lineweaver-Burk plots. […] Namely, both compounds can bind to the free enzyme or the enzyme-substrate complex. […] It is known that these interactions occur quickly and can be easily reversed. Therefore, the enzyme and inhibitor complex is rapidly degraded immediately prior to irreversible inhibition. […] As a result, enzyme kinetics studies have shown the biological importance of compounds 3d and 3h due to their mixed type forces, unlike irreversible enzyme inhibitors.\nEnzyme kinetic studies were performed for compounds 3d and 3h in order to determine the inhibition type on AChE. […]"}}, "note": "Entries after “also recorded” stand apart in the source; their conditions may differ. Like-named read-outs stand apart in the source and are kept apart here."}
{"smiles": "Cn1c(SCC(=O)c2ccc(C#N)cc2)nnc1-c1ccc(-c2nc3cc(Cl)ccc3[nH]2)cc1", "note": "[3a, 2-(4-(4-Methyl-5-(2-(4-cyanophenyl)-2-oxo-ethylthio)-4H-1,2,4-triazol-3yl)-phenyl)-5(6)-chloro-1H-benz-imidazole]", "values": [{"measurement": "% Inhibition AChE", "setting": "AChE [1]; 10^−3 M", "value": "68.18 ± 1.05", "unit": "%"}, {"measurement": "% Inhibition AChE", "setting": "AChE [1]; 10^−4 M", "value": "47.26 ± 0.62", "unit": "%"}, {"measurement": "% Inhibition BChE", "setting": "BChE; 10^−3 M", "value": "40.28 ± 0.98", "unit": "%"}, {"measurement": "% Inhibition BChE", "setting": "BChE; 10^−4 M", "value": "25.13 ± 0.56", "unit": "%"}]}
{"smiles": "Cn1c(SCC(=O)c2ccc(Br)cc2)nnc1-c1ccc(-c2nc3cc(Cl)ccc3[nH]2)cc1", "note": "[3b, 2-(4-(4-Methyl-5-(2-(4-bromophenyl)-2-oxo-ethylthio)-4H-1,2,4-triazol-3yl)-phenyl)-5(6)-chloro-1H-benz-imidazole]", "values": [{"measurement": "% Inhibition AChE", "setting": "AChE [1]; 10^−3 M", "value": "44.20 ± 0.87", "unit": "%"}, {"measurement": "% Inhibition AChE", "setting": "AChE [1]; 10^−4 M", "value": "26.18 ± 0.63", "unit": "%"}, {"measurement": "% Inhibition BChE", "setting": "BChE; 10^−3 M", "value": "28.15 ± 0.97", "unit": "%"}, {"measurement": "% Inhibition BChE", "setting": "BChE; 10^−4 M", "value": "18.42 ± 0.88", "unit": "%"}]}
{"smiles": "Cc1ccc(C(=O)CSc2nnc(-c3ccc(-c4nc5cc(Cl)ccc5[nH]4)cc3)n2C)cc1", "note": "[3c, 2-(4-(4-Methyl-5-(2-(4-methylphenyl)-2-oxo-ethylthio)-4H-1,2,4-triazol-3yl)-phenyl)-5(6)-chloro-1H-benz-imidazole]", "values": [{"measurement": "% Inhibition AChE", "setting": "AChE [1]; 10^−3 M", "value": "39.18 ± 0.71", "unit": "%"}, {"measurement": "% Inhibition AChE", "setting": "AChE [1]; 10^−4 M", "value": "17.89 ± 0.54", "unit": "%"}, {"measurement": "% Inhibition BChE", "setting": "BChE; 10^−3 M", "value": "26.11 ± 0.74", "unit": "%"}, {"measurement": "% Inhibition BChE", "setting": "BChE; 10^−4 M", "value": "20.21 ± 0.61", "unit": "%"}]}
{"smiles": "Cn1c(SCC(=O)c2ccc(O)c(O)c2)nnc1-c1ccc(-c2nc3cc(Cl)ccc3[nH]2)cc1", "note": "[3d, 2-(4-(4-Methyl-5-(2-(3,4-dihydroxyphenyl)-2-oxo-ethylthio)-4H-1,2,4-triazol-3yl)-phenyl)-5(6)-chloro-1H-benzimidazole]", "values": [{"measurement": "% Inhibition AChE", "setting": "AChE [1]; 10^−3 M", "value": "98.55 ± 1.17", "unit": "%"}, {"measurement": "% Inhibition of AChE", "setting": "AChE [1]; 10^−5 M", "value": "87.26 ± 1.28", "unit": "%"}, {"measurement": "% Inhibition of AChE", "setting": "AChE [1]; 10^−6 M", "value": "78.85 ± 1.19", "unit": "%"}, {"measurement": "% Inhibition of AChE", "setting": "AChE [1]; 10^−7 M", "value": "67.18 ± 0.92", "unit": "%"}, {"measurement": "% Inhibition of AChE", "setting": "AChE [1]; 10^−8 M", "value": "45.32 ± 0.82", "unit": "%"}, {"measurement": "% Inhibition of AChE", "setting": "AChE [1]; 10^−9 M", "value": "15.75 ± 0.48", "unit": "%"}, {"measurement": "% Inhibition BChE", "setting": "BChE; 10^−3 M", "value": "51.19 ± 0.99", "unit": "%"}, {"measurement": "% Inhibition BChE", "setting": "BChE; 10^−4 M", "value": "38.12 ± 0.41", "unit": "%"}, {"measurement": "type of AChE inhibition", "setting": "AChE [2]", "value": "mixed type inhibition; also recorded: reversible inhibitors; also recorded: reversible and mixed-type"}]}
{"smiles": "CCn1c(SCC(=O)c2ccc(C#N)cc2)nnc1-c1ccc(-c2nc3cc(Cl)ccc3[nH]2)cc1", "note": "[3e, 2-(4-(4-Ethyl-5-(2-(4-cyanophenyl)-2-oxo-ethylthio)-4H-1,2,4-triazol-3yl)-phenyl)-5(6)-chloro-1H-benz-imidazole]", "values": [{"measurement": "% Inhibition AChE", "setting": "AChE [1]; 10^−3 M", "value": "77.29 ± 1.06", "unit": "%"}, {"measurement": "% Inhibition AChE", "setting": "AChE [1]; 10^−4 M", "value": "41.22 ± 0.84", "unit": "%"}, {"measurement": "% Inhibition BChE", "setting": "BChE; 10^−3 M", "value": "38.22 ± 0.63", "unit": "%"}, {"measurement": "% Inhibition BChE", "setting": "BChE; 10^−4 M", "value": "22.41 ± 0.47", "unit": "%"}]}
{"smiles": "CCn1c(SCC(=O)c2ccc(Br)cc2)nnc1-c1ccc(-c2nc3cc(Cl)ccc3[nH]2)cc1", "note": "[3f, 2-(4-(4-Ethyl-5-(2-(4-bromophenyl)-2-oxo-ethylthio)-4H-1,2,4-triazol-3yl)-phenyl)-5(6)-chloro-1H-benz-imidazole]", "values": [{"measurement": "% Inhibition AChE", "setting": "AChE [1]; 10^−3 M", "value": "47.22 ± 0.67", "unit": "%"}, {"measurement": "% Inhibition AChE", "setting": "AChE [1]; 10^−4 M", "value": "24.08 ± 0.48", "unit": "%"}, {"measurement": "% Inhibition BChE", "setting": "BChE; 10^−3 M", "value": "29.15 ± 0.59", "unit": "%"}, {"measurement": "% Inhibition BChE", "setting": "BChE; 10^−4 M", "value": "17.88 ± 0.40", "unit": "%"}]}
{"smiles": "CCn1c(SCC(=O)c2ccc(C)cc2)nnc1-c1ccc(-c2nc3cc(Cl)ccc3[nH]2)cc1", "note": "[3g, 2-(4-(4-Ethyl-5-(2-(4-methylphenyl)-2-oxo-ethylthio)-4H-1,2,4-triazol-3yl)-phenyl)-5(6)-chloro-1H-benz-imidazole]", "values": [{"measurement": "% Inhibition AChE", "setting": "AChE [1]; 10^−3 M", "value": "37.20 ± 0.68", "unit": "%"}, {"measurement": "% Inhibition AChE", "setting": "AChE [1]; 10^−4 M", "value": "18.33 ± 0.38", "unit": "%"}, {"measurement": "% Inhibition BChE", "setting": "BChE; 10^−3 M", "value": "31.89 ± 0.99", "unit": "%"}, {"measurement": "% Inhibition BChE", "setting": "BChE; 10^−4 M", "value": "24.75 ± 0.95", "unit": "%"}]}
{"smiles": "CCn1c(SCC(=O)c2ccc(O)c(O)c2)nnc1-c1ccc(-c2nc3cc(Cl)ccc3[nH]2)cc1", "note": "[3h, 2-(4-(4-Ethyl-5-(2-(3,4-dihydroxyphenyl)-2-oxo-ethylthio)-4H-1,2,4-triazol-3yl)-phenyl)-5(6)-chloro-1H-benzimidazole]", "values": [{"measurement": "% Inhibition AChE", "setting": "AChE [1]; 10^−3 M", "value": "98.25 ± 1.12", "unit": "%"}, {"measurement": "% Inhibition of AChE", "setting": "AChE [1]; 10^−5 M", "value": "90.23 ± 1.03", "unit": "%"}, {"measurement": "% Inhibition of AChE", "setting": "AChE [1]; 10^−6 M", "value": "81.25 ± 1.08", "unit": "%"}, {"measurement": "% Inhibition of AChE", "setting": "AChE [1]; 10^−7 M", "value": "65.32 ± 0.97", "unit": "%"}, {"measurement": "% Inhibition of AChE", "setting": "AChE [1]; 10^−8 M", "value": "44.28 ± 0.71", "unit": "%"}, {"measurement": "% Inhibition of AChE", "setting": "AChE [1]; 10^−9 M", "value": "17.20 ± 0.58", "unit": "%"}, {"measurement": "% Inhibition BChE", "setting": "BChE; 10^−3 M", "value": "61.26 ± 0.90", "unit": "%"}, {"measurement": "% Inhibition BChE", "setting": "BChE; 10^−4 M", "value": "35.20 ± 0.42", "unit": "%"}, {"measurement": "type of AChE inhibition", "setting": "AChE [2]", "value": "mixed type inhibition; also recorded: reversible inhibitors; also recorded: reversible and mixed-type"}]}
